These results are taken from patent publication US5672594A, “L-erythrosyl nucleosides” (Genencor International, Inc., priority 1994, dated 1997).

In one data set the test system is COLO320 (colon). Put plainly: In vitro growth inhibition of COLO320 tumor cells (radiometric BACTEC). The class given is cell-based. Particulars: Homo sapiens, COLO 320, concentration required to kill 50% of the untreated cancer cells. From the text:
(§1) CELL LINES: Eight different established human cell lines CALU (lung), COLO320 (colon), H578St (breast), HT-29 (colon), MCF-7 (breast), OM-1 (colon), SKLU (lung) and SKMES (lung), and two control cell lines (bone marrow andr fibroblasts) were utilized.
(§2) All cell lines were obtained from the Tumor Cloning Laboratory, Institute for Drug Development, Cancer Therapy and Research Center, San Antonio, Tex. All cell lines grew as monolayers in the appropriate culture medium supplemented with heat-inactivated calf serum. All reagents were obtained from Grand Island Biological Co., Grand Island, N.Y. […]
(§3) RADIOMETRIC MEASUREMENT OF GROWTH INHIBITION: Growth inhibition was assessed with the BACTEC System 460 (Johnston Laboratories, Towson, Md.) after addition of the antitumor agent in the respective growth medium containing ^14 C-glucose at a final concentration of 2 μCi/ml. […]
(§4) Two mls of the tumor cell suspension containing radioactive glucose were seeded into sterile, disposable 15 ml vials by injection through self-sealing rubber-aluminum caps. […] Chemotherapy sensitivity was calculated by comparing the growth index values of drug-treated vials to that observed in control vials. […]
(§5) The data presented in Table I are compared to results achieved with 5-FU as the control. […] In this regard, a therapeutic ratio for a given compound is typically determined by the following calculation. […]

In a further data set the test system is CALU (lung). Put plainly: In vitro growth inhibition of CALU tumor cells (radiometric BACTEC). The format is cell-based, human. The settings on record: for IC50: Homo sapiens.
Source text: as §1
(§6) All cell lines were obtained from the Tumor Cloning Laboratory, Institute for Drug Development, Cancer Therapy and Research Center, San Antonio, Tex. All cell lines grew as monolayers in the appropriate culture medium supplemented with heat-inactivated calf serum. All reagents were obtained from Grand Island Biological Co., Grand Island, N.Y.
(§7) The iv formulations of the compounds of the present invention were prepared with sterile buffered saline and stored at -70° C. until required for testing.
(§8) Following trypsinization, tumor cells were suspended in tissue culture medium and exposed to the antitumor agents continuously at three different concentrations: 10, 1 and 0.1 μg/ml.
(§9) RADIOMETRIC MEASUREMENT OF GROWTH INHIBITION: Growth inhibition was assessed with the BACTEC System 460 (Johnston Laboratories, Towson, Md.) after addition of the antitumor agent in the respective growth medium containing ^14 C-glucose at a final concentration of 2 μCi/ml.
(§10) Two mls of the tumor cell suspension containing radioactive glucose were seeded into sterile, disposable 15 ml vials by injection through self-sealing rubber-aluminum caps. […] The seeded vials were then incubated at 37° C. Measurement of the release of ^14 CO2 resulting from the metabolism of ^14 C-glucose were performed on days 6, 9, 12, and 15 in the BACTEC instrument. This instrument flushes the ^14 CO2 containing air out of the vials into an ionization chamber that converts dpm to growth index values. […] Each data point represents triplicate values.
(§11) All compounds were dosed on an equimilimolar basis. […] [formula]

The conditions of data set [1]: known drug, background; cited from earlier work.
Data set [2] in a line: In vitro growth inhibition/survival, bone marrow control cells (radiometric BACTEC). The format is cell-based. Particulars: human, continuous exposure (10, 1 and 0.1 μg/ml tested; concentration of this value not given).
Source text: as §1, §6, §7, §8, §9
Two mls of the tumor cell suspension containing radioactive glucose were seeded into sterile, disposable 15 ml vials by injection through self-sealing rubber-aluminum caps. […]

The next data set concerns SKMES (lung). Put plainly: In vitro growth inhibition of SKMES tumor cells (radiometric BACTEC). Particulars: for IC50: Homo sapiens. The format is cell-based, human.
Source text: as §1, §6, §7, §8, §9, §10, §11

Another data set relates to OM-1 (colon). Put plainly: In vitro growth inhibition of OM-1 tumor cells (radiometric BACTEC). The settings on record: Homo sapiens, concentration required to kill 50% of the untreated cancer cells. The class given is cell-based.
Source text: as §1, §2, §3, §4, §5

Another data set concerns MCF-7 (breast). Put plainly: In vitro growth inhibition of MCF-7 tumor cells (radiometric BACTEC). The class given is cell-based, human. The settings on record: for IC50: Homo sapiens, MCF7.
Source text: as §1, §6, §7, §8, §9, §10, §11

In a further data set the test system is SKLU (lung). Put plainly: In vitro growth inhibition of SKLU tumor cells (radiometric BACTEC). The class given is cell-based. The settings on record: Homo sapiens, concentration required to kill 50% of the untreated cancer cells.
Source text: as §1, §2, §3, §4, §5

Another data set has as its system HS578T (breast). Put plainly: In vitro growth inhibition of HS578T tumor cells (radiometric BACTEC). The format is cell-based. Particulars: Homo sapiens, Hs-578T, concentration required to kill 50% of the untreated cancer cells.
Source text: as §1, §2, §3, §4, §5

A further data set relates to HT29 (colon). Put plainly: In vitro growth inhibition of HT29 tumor cells (radiometric BACTEC). The class given is cell-based. The settings on record: Homo sapiens, HT-29, concentration required to kill 50% of the untreated cancer cells.
Source text: as §1, §2, §3, §4, §5

SMILES strings stand for the structures. Converted amounts (≈) assume the structure as drawn. Read-outs that look alike come from different tables or passages of the source.

What is called viability is a read-out of living cells in per cent, often relative to untreated cells. As for `O=c1[nH]cc(F)c(=O)[nH]1` [5-FU, 5-fluorouracil], the IC50 in the data set with COLO320 (colon) is under 0.6 µg/mL; in the data set with CALU (lung), under 0.6 µg/mL; in the data set with SKMES (lung), under 0.6 µg/mL; in the data set with OM-1 (colon), 1.47 µg/mL (≈ 11.3 µM); with MCF-7 (breast) it was under 0.6 µg/mL; with SKLU (lung), 1.05 µg/mL (≈ 8.06 µM). For the same compound, the IC50 in the data set with HS578T (breast) was over 0.6 µg/mL; in the data set with HT29 (colon), 0.613 µg/mL (≈ 4.71 µM). In addition, the side effects result in [1] is listed as “nausea, vomiting, diarrhea, leukopenia, thrombocytopenia, alopecia”. The viability in data set [2] stood at 38.6%.

For the compound `O=c1[nH]c(=O)n([C@@H]2OC[C@H](O)[C@@H]2O)cc1F` [α-L-erythrofuranosyl-5-fluorouracil], the “% SURVIVAL TUMOR” value with CALU (lung) (CALU, continuous exposure (10, 1 and 0.1 μg/ml tested; concentration of this value not given)) came out at 85.3%; in the data set with SKMES (lung) (SKMES, continuous exposure, concentration of this value not given), 67.4%; in the data set with MCF-7 (breast) (MCF-7, continuous exposure, concentration of this value not given), 52.7%. For the same compound, the IC50 was over 10 µg/mL in the data set on CALU (lung) (CALU, concentration required to kill 50% of the untreated cancer cells, read-out: IC 50); over 10 µg/mL in the data set on SKMES (lung) (SKMES, concentration required to kill 50% of the untreated cancer cells, read-out: IC 50); over 10 µg/mL in the data set on MCF-7 (breast) (MCF-7, concentration required to kill 50% of the untreated cancer cells, read-out: IC 50). Moreover, in data set [2], the viability is 104%.
